What was measured:
bedstraw = experiment: Test B pre/postemergence bedstraw; type: in vivo, Galium aparine; conditions: scale of 0 to 10 where 0 is no effect and 10 is complete control
Procedure, shortened: (§1)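 Response is a visual 0-to-10 score relative to untreated plants, where 0 means no effect and 10 means complete control, taken twelve to sixteen days after application. Treatments went onto soil at planting and onto foliage of 1- to 4-leaf plants, using a surfactant-containing non-phytotoxic solvent.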

blackgrass = experiment: Test B pre/postemergence blackgrass; type: in vivo, Alopecurus myosuroides; conditions: scale of 0 to 10 where 0 is no effect and 10 is complete control
Procedure, shortened: as §1

surinam grass = experiment: Test B pre/postemergence surinam grass; type: in vivo, Brachiaria decumbens; conditions: scale of 0 to 10 where 0 is no effect and 10 is complete control
Procedure, shortened: as §1

cocklebur = experiment: Test B pre/postemergence cocklebur; type: in vivo, Xanthium strumarium
Procedure, shortened: as §1

corn = experiment: Test B pre/postemergence corn; type: in vivo, Zea mays
Procedure, shortened: as §1

crabgrass = experiment: Test B pre/postemergence crabgrass; type: in vivo, Digitaria sanguinalis
Procedure, shortened: as §1

soybean = experiment: Test B pre/postemergence soybean; type: in vivo, Glycine max; conditions: scale of 0 to 10 where 0 is no effect and 10 is complete control
Procedure, shortened: as §1

sugar beet = experiment: Test B pre/postemergence sugar beet; type: in vivo, Beta vulgaris; conditions: scale of 0 to 10 where 0 is no effect and 10 is complete control
Procedure, shortened: as §1

velvetleaf = experiment: Test B pre/postemergence velvetleaf; type: in vivo, Abutilon theophrasti
Procedure, shortened: as §1

wheat = experiment: Test B pre/postemergence wheat; type: in vivo, Triticum aestivum; conditions: scale of 0 to 10 where 0 is no effect and 10 is complete control
Procedure, shortened: as §1

wild oat = experiment: Test B pre/postemergence wild oat; type: in vivo, Avena fatua; conditions: scale of 0 to 10 where 0 is no effect and 10 is complete control
Procedure, shortened: as §1

purple nutsedge = experiment: Test B pre/postemergence purple nutsedge; type: in vivo, Cyperus rotundus
Procedure, shortened: as §1

rice = experiment: Test B flood test rice; type: in vivo, Oryza sativa
Procedure, shortened: (§2)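 Read-out is a visual response score from 0 (no effect) to 10 (complete control), assigned by comparison with untreated controls. Treatment was applied at the 2-leaf stage, and plants stayed in the greenhouse for twelve to sixteen days before scoring.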

smallflower flatsedge = experiment: Test B flood test smallflower flatsedge; type: in vivo, Cyperus difformis
Procedure, shortened: as §2

duck salad = experiment: Test B flood test duck salad; type: in vivo, Heteranthera limosa
Procedure, shortened: as §2

bamyardgrass = experiment: Test B flood test barnyardgrass; type: in vivo, Echinochloa crus-galli
Procedure, shortened: as §2

[1] = Preemergence, Rate 62 g/ha, scale of 0 to 10 where 0 is no effect and 10 is complete control
[2] = Preemergence, Rate 250 g/ha, scale of 0 to 10 where 0 is no effect and 10 is complete control
[3] = Preemergence, Rate 500 g/ha, scale of 0 to 10 where 0 is no effect and 10 is complete control
[4] = Rate 62 g/ha, Postemergence, scale of 0 to 10 where 0 is no effect and 10 is complete control
[5] = Rate 125 g/ha, Postemergence, scale of 0 to 10 where 0 is no effect and 10 is complete control
[6] = Rate 125 g/ha, Preemergence, scale of 0 to 10 where 0 is no effect and 10 is complete control
[7] = Rate 250 g/ha, Postemergence, scale of 0 to 10 where 0 is no effect and 10 is complete control
[8] = Rate 500 g/ha, Postemergence, scale 0 to 10, 0 no effect, 10 complete control
[9] = Rate 62 g/ha, headed Pre-emergence (flood test species), scale 0 to 10 (0 no effect, 10 complete control)
[10] = Rate 125 g/ha, Pre-emergence, flood test species, scale 0 to 10 where 0 is no effect and 10 is complete control
[11] = Rate 250 g/ha, Pre-emergence, flood-test species, scale 0 to 10, 0 is no effect, 10 is complete control
[12] = Rate 500 g/ha, Pre-emergence, flood test species, scale 0 to 10 (0 no effect, 10 complete control)

## Cc1ccccc1-n1c(=O)on(C(=O)N(c2ccc(Oc3ccccc3)cc2)C(C)C)c1=O [Compound 268]
bedstraw; Preemergence, Rate 62 g/ha
  Bedstraw plant response rating: 0
bedstraw; Preemergence, Rate 250 g/ha
  Bedstraw plant response rating: 0
bedstraw; Preemergence, Rate 500 g/ha
  Plant response rating, Bedstraw: 0
bedstraw; Rate 62 g/ha, Postemergence
  Bedstraw plant response rating: 0
bedstraw; Rate 125 g/ha, Postemergence
  Bedstraw plant response rating: 0
bedstraw; Rate 125 g/ha, Preemergence
  Bedstraw plant response rating: 0
bedstraw; Rate 250 g/ha, Postemergence
  Plant response rating, Bedstraw: 0
blackgrass; Preemergence, Rate 62 g/ha
  Blackgrass plant response rating: 0
blackgrass; Preemergence, Rate 250 g/ha
  Blackgrass plant response rating: 0
blackgrass; Preemergence, Rate 500 g/ha
  Plant response rating, Blackgrass: 0
blackgrass; Rate 62 g/ha, Postemergence
  Blackgrass plant response rating: 0
blackgrass; Rate 125 g/ha, Postemergence
  Blackgrass plant response rating: 0
blackgrass; Rate 125 g/ha, Preemergence
  Blackgrass plant response rating: 0
blackgrass; Rate 250 g/ha, Postemergence
  Plant response rating, Blackgrass: 0
Surinam grass; Preemergence, Rate 62 g/ha
  B. signalgrass plant response rating: 0
Surinam grass; Preemergence, Rate 250 g/ha
  B. signalgrass plant response rating: 0
Surinam grass; Preemergence, Rate 500 g/ha
  Plant response rating, B. signalgrass: 0
Surinam grass; Rate 62 g/ha, Postemergence
  B. signalgrass plant response rating: 0
Surinam grass; Rate 125 g/ha, Postemergence
  B. signalgrass plant response rating: 0
Surinam grass; Rate 125 g/ha, Preemergence
  B. signalgrass plant response rating: 0
Surinam grass; Rate 250 g/ha, Postemergence
  Plant response rating, B. signalgrass: 0
cocklebur; [1]
  Cocklebur plant response rating: 0
cocklebur; [2]
  Cocklebur plant response rating: 0
cocklebur; [3]
  Plant response rating, Cocklebur: 0
cocklebur; [4]
  Cocklebur plant response rating: 0
cocklebur; [5]
  Cocklebur plant response rating: 0
cocklebur; [6]
  Cocklebur plant response rating: 0
cocklebur; [7]
  Plant response rating, Cocklebur: 0
cocklebur; [8]
  Cocklebur plant response rating: 0
corn; [1]
  Corn plant response rating: 0
corn; [2]
  Corn plant response rating: 0
corn; [3]
  Plant response rating, Corn: 0
corn; [4]
  Corn plant response rating: 0
corn; [5]
  Corn plant response rating: 0
corn; [6]
  Corn plant response rating: 0
corn; [7]
  Plant response rating, Corn: 0
corn; [8]
  Corn plant response rating: 3
crabgrass; [1]
  Crabgrass plant response rating: 0
crabgrass; [2]
  Crabgrass plant response rating: 0
crabgrass; [3]
  Plant response rating, Crabgrass: 0
crabgrass; [5]
  Crabgrass plant response rating: 0
crabgrass; [6]
  Crabgrass plant response rating: 0
crabgrass; [7]
  Plant response rating, Crabgrass: 0
crabgrass; [8]
  Crabgrass plant response rating: 0
soybean; Preemergence, Rate 62 g/ha
  Soybean plant response rating: 0
soybean; Preemergence, Rate 250 g/ha
  Soybean plant response rating: 0
soybean; Preemergence, Rate 500 g/ha
  Plant response rating, Soybean: 0
soybean; Rate 125 g/ha, Postemergence
  Soybean plant response rating: 0
soybean; Rate 125 g/ha, Preemergence
  Soybean plant response rating: 0
soybean; Rate 250 g/ha, Postemergence
  Plant response rating, Soybean: 0
Sugar beet; Preemergence, Rate 62 g/ha
  Sugarbeets plant response rating: 0
Sugar beet; Preemergence, Rate 250 g/ha
  Sugarbeets plant response rating: 0
Sugar beet; Preemergence, Rate 500 g/ha
  Plant response rating, Sugarbeets: 0
Sugar beet; Rate 125 g/ha, Postemergence
  Sugarbeets plant response rating: 0
Sugar beet; Rate 125 g/ha, Preemergence
  Sugarbeets plant response rating: 0
Sugar beet; Rate 250 g/ha, Postemergence
  Plant response rating, Sugarbeets: 0
velvetleaf; [1]
  Velvetleaf plant response rating: 0
velvetleaf; [2]
  Velvetleaf plant response rating: 0
velvetleaf; [3]
  Plant response rating, Velvetleaf: 0
velvetleaf; [5]
  Velvetleaf plant response rating: 0
velvetleaf; [6]
  Velvetleaf plant response rating: 0
velvetleaf; [7]
  Plant response rating, Velvetleaf: 0
velvetleaf; [8]
  Velvetleaf plant response rating: 0
wheat; Preemergence, Rate 62 g/ha
  Wheat plant response rating: 0
wheat; Preemergence, Rate 250 g/ha
  Wheat plant response rating: 0
wheat; Preemergence, Rate 500 g/ha
  Plant response rating, Wheat: 0
wheat; Rate 125 g/ha, Postemergence
  Wheat plant response rating: 0
wheat; Rate 125 g/ha, Preemergence
  Wheat plant response rating: 0
wheat; Rate 250 g/ha, Postemergence
  Plant response rating, Wheat: 0
Wild oat; Preemergence, Rate 62 g/ha
  Wild oats plant response rating: 0
Wild oat; Preemergence, Rate 250 g/ha
  Wild oats plant response rating: 0
Wild oat; Preemergence, Rate 500 g/ha
  Plant response rating, Wild oats: 0
Wild oat; Rate 125 g/ha, Postemergence
  Wild oats plant response rating: 0
Wild oat; Rate 250 g/ha, Postemergence
  Plant response rating, Wild oats: 0
Purple nutsedge; [1]
  Nutsedge plant response rating: 0
Purple nutsedge; [2]
  Nutsedge plant response rating: 0
Purple nutsedge; [5]
  Nutsedge plant response rating: 0
Purple nutsedge; [6]
  Nutsedge plant response rating: 0
Purple nutsedge; [7]
  Plant response rating, Nutsedge: 0
Purple nutsedge; [8]
  Nutsedge plant response rating: 0
rice; [9]
  Rice plant response rating: 0
rice; [10]
  Rice plant response rating: 0
rice; [11]
  Rice plant response rating: 0
rice; [12]
  Rice plant response rating: 0
Smallflower flatsedge; [9]
  S. Flatsedge plant response rating: 0
Smallflower flatsedge; [10]
  S. Flatsedge plant response rating: 0
Smallflower flatsedge; [11]
  S. Flatsedge plant response rating: 0
Smallflower flatsedge; [12]
  S. Flatsedge plant response rating: 0
Duck salad; [9]
  Ducksalad plant response rating: 0
Duck salad; [10]
  Ducksalad plant response rating: 0
Duck salad; [11]
  Ducksalad plant response rating: 0
Duck salad; [12]
  Ducksalad plant response rating: 0
bamyardgrass; [9]
  Barnyardgrass plant response rating: 0
bamyardgrass; [10]
  Barnyardgrass plant response rating: 0
bamyardgrass; [11]
  Barnyardgrass plant response rating: 0
bamyardgrass; [12]
  Barnyardgrass plant response rating: 0
